# Measured values: ChEMBL document CHEMBL1135023, “A lipophilic thioflavin-T derivative for positron emission tomography (PET) imaging of amyloid in brain” (Bioorg Med Chem Lett, 2002)
# Legend:
# [1] = test system: Mus musculus; test: Compound was tested in vivo for mouse brain uptake after 30 min; Mouse brain uptake per g; assay type: functional, organism-based
# [2] = test system: Mus musculus; test: Compound was tested in vivo for mouse brain uptake after 2 min; Mouse brain uptake per g; assay type: functional, organism-based
# [3] = Octanol-water partition at pH 7.4; assay type: physicochemical
# [4] = Ratio of 2-30 min mouse brain uptakes per g was determined; assay type: functional
# [5] = In vitro binding using synthetic aggregated Abeta(1-40) fibrils
logD [3],Compound,ID/g [1],ID/g [2],Ratio [4],Ki [5]
0.57,Cc1ccc2c(c1)sc(-c1ccc(N(C)C)cc1)[n+]2C,,,,
2.7,CNc1ccc(-c2nc3ccccc3s2)cc1,1.7%,12.9%,,

Compound,logD [3],ID/g [1],ID/g [2],Ratio [4],Ki [5]
CNc1ccc(-c2nc3ccc(C)cc3s2)cc1,3.4,2.8%,7.6%,2.7,10 nM
